Reference: US20220016092A1, “METHODS FOR TREATING SYMPTOMS AND DISORDERS ASSOCIATED WITH LYSOSOMAL STORAGE DISEASES” (GENZYME CORPORATION, priority 2019, published 2022)
Values joined by “and” are separate entries in the source; they are usually repeats but may differ in a detail not shown here. Equal entries are not always repeated. Where two headings read alike, the source gives them in different places.

Assays:
[1] = test system: adult patients with Gaucher disease Type 3; assay: Clinical study in GD-3 patients: markers for systemic disease (platelets, spleen volume, hemoglobin); format: in vivo, human; conditions: 15 mg/day + imiglucerase
Protocol: (§1) During the study patients were evaluated for safety and tolerability, CSF and plasma biomarkers (glucosylceramide, GL-1; glucosylsphingosine, lyso-GL1), pharmacokinetics, markers for systemic disease (spleen and liver volume measured by magnetic resonance imaging (MRI), platelet count, hemoglobin levels), indicia of interstitial lung disease (high resolution pulmonary computed tomography (CT)), and horizontal saccadic eye movement.
Individual patient data for platelet counts are shown in the table below (shown as 10^9 platelets/L): […]

[2] = test system: adult patients with Gaucher disease Type 3; assay: Clinical study in GD-3 patients: horizontal and vertical saccadic eye movements; format: in vivo, human; conditions: 15 mg/day + imiglucerase
Protocol: as §1
Quantification of horizontal and vertical saccadic eye movements (HSEM and VSEM, respectively) was performed in all 5 patients. In the five patients, mean peak velocity (PV) of horizontal rightward 15° saccades was 50.8°/s (+/−8.1°/s) at baseline and […] (+/−12.6°/s) at Week 26; and the mean PV of horizontal leftward 15° saccades was 44.7° /s (+/−17.9°/s) at baseline and 32.3°/s (+/−15.9°/s) at Week 26. A slower velocity implies a more significant degree of neurological impairment. The mean PV of horizontal rightward 30° saccades was 77.7°/s (+/−16.4°/s) at baseline and […] (+/−24.7°/s) at Week 26; and the mean PV of horizontal leftward 30° saccades was 58.7°/s (+/−21.5°/s) at baseline and 49.9°/s (+/−8.5°/s) at Week 26. The normal range for […] horizontal saccades has previously been reported as >200°/s and >400°/s (Bremova-Ertl et al, 2018). […] As with HSEM, VSEM measurements were stable between baseline and week 26.
At 52 weeks, quantification of horizontal and vertical saccadic eye movements was performed in all six patients in a similar manner as described in section (A). However, it was determined that the methodology used to account for noise (e.g., caused by blinking or head movements) may have introduced bias into the results. The method of accounting for noise was therefore modified, and a set of control criteria were developed to assess validity of the datasets obtained by the eye movement reader.

[3] = test system: adult patients with Gaucher disease Type 3; assay: Clinical study in GD-3 patients: Scale for Assessment and Rating of Ataxia (SARA); format: in vivo, human; conditions: 15 mg/day + imiglucerase
Protocol: The degree of ataxia at baseline and throughout the study was evaluated by the Scale for Assessment and Rating of Ataxia (SARA; Schmitz-Hübsch et al. [2006]), which assesses eight distinct attributes of cerebellar ataxia on a scale of 0-40. The eight attributes are gait, stance, sitting, speech disturbance, finger chase, nose-finger test, fast alternate hand movement, and heel-shin slide. SARA ataxia scoring results for all six patients is presented in the chart below: […]

[4] = test system: adult patients with Gaucher disease Type 3; assay: Clinical study in GD-3 patients: resting-state fMRI connectivity; format: in vivo, human; conditions: 15 mg/day + imiglucerase, individual Patients 1, 3, 4, 5, 6 (Patient 5 likely non-compliant)
Protocol: Neurological function-was further evaluated using functional magnetic resonance imaging (fMRI). Patient 2 was excluded because no fMRI data was collected at the Week 52 session. Resting-state fMRI screening sessions were performed at baseline screening, Week 26, and Week 52 visits. Connectivity estimates from four subjects (Patients 1, 3, 4 and 5) were entered into second-level analyses as a “compliant” group. Patient 5 was isolated due to likely non-compliance with study medication, as described above. Analyses were performed as described elsewhere (Smith et al. [2009]).
Spatial analysis of the connectivity between different anatomic regions of the brain is performed to define a correlation coefficient for regressed voxelwise mean intensity.

[5] = Study 2: ascending repeated-dose pharmacokinetics in healthy volunteers; format: in vivo, human; conditions: for AUC(0-t) / Cmax / Tmax / CL renal: both sexes, human, oral; for AUC(0-t) / Cmax / Tmax: plasma; for Tmax: read-out: tmax, median (range); for CL renal: urine and plasma
[6] = test system: plasma GL-1, GL-3, and GM3; assay: Study 2: pharmacodynamics in healthy volunteers; format: in vivo, human; conditions: healthy adults; all dose groups (5, 10, 20 mg)
Protocol: The study enrolled and randomized 36 healthy adults (19 men and 17 women) (n=9 each to group).
Pharmacodynamic endpoints (plasma GL-1, GL-3, and GM3 concentrations) were assessed on Days 1-5, 8, 11, 13, and 14, at 0 hours […]; and on Day 15, at 24 hours after the Day 14 dose.

[7] = test system: healthy, human volunteers; assay: Phase 1 studies in healthy volunteers: safety; format: in vivo
Protocol: Compound 2 is also known as venglustat.
In all studies, safety profile was assessed by monitoring treatment-emergent adverse events (TEAEs) through 10 days after last dose of study medication, including serious adverse events [SAEs]), ECG monitoring, laboratory values, and physical examinations.

Structure (SMILES): CC(C)(NC(=O)O[C@@H]1CN2CCC1CC2)c1csc(-c2ccc(F)cc2)n1 [Compound 2, (S)-quinuclidin-3-yl 2-(2-(4-fluorophenyl)thiazol-4-yl)propan-2-ylcarbamate]
- Hemoglobin levels ([1]; 26 weeks): no clinically meaningful changes in hemoglobin levels
- Platelet count increase in the three patients with lowest baseline platelet counts ([1]; 26 weeks): 23-42%
- Patients with reductions in splenic volume of 10% or more ([1]; 26 weeks (5 patients)): Two
- Systemic deterioration ([1]; 26 weeks, all patients): absence of systemic deterioration
- Platelet count ([1]; Week 4, individual Patients 1-5): 203 10^9 platelets/L and 243 10^9 platelets/L and 247 10^9 platelets/L and 239 10^9 platelets/L and 154 10^9 platelets/L
- Platelet count ([1]; Week 12, individual Patients 1-5): 214 10^9 platelets/L and 294 10^9 platelets/L and 264 10^9 platelets/L and 314 10^9 platelets/L and 180 10^9 platelets/L
- Platelet count ([1]; Week 26, individual Patients 1-5): 264 10^9 platelets/L and 236 10^9 platelets/L and 248 10^9 platelets/L and 267 10^9 platelets/L and 173 10^9 platelets/L
- Hemoglobin levels ([1]; Week 52): no clinically meaningful changes in hemoglobin levels
- Platelet count maintained by all patients ([1]; Week 52): greater than 120 ×10^9/L
- Patients with spleen volume reductions ([1]; Week 52 (six patients)): two
- Mean platelet concentration increase ([1]; Week 52, range −8.2% to +45.3%): 9.3%
- Platelet count, % Change from baseline to 26 weeks ([1]; individual Patients 1-5): +42% and +23% and −4.3% and −13% and +36%
- Platelet counts, average rise from baseline ([1]; week 26): 17%
- Changes in HSEM ([2]; 26-week treatment period): no clinically meaningful changes in HSEM
- Mean peak velocity of horizontal leftward 15° saccades ([2]; Week 26, five patients): 32.3 °/s
- Mean peak velocity of horizontal leftward 30° saccades ([2]; Week 26, five patients): 49.9 °/s
- VSEM measurements ([2]; between baseline and week 26): stable
- Patients showing improvements in ataxia ([3]; 52 weeks): 5 of 6
- Patients exhibiting an improvement in ataxia, excluding Patient 5 ([3]; Week 52): 4 out of 5
- Mean improvement in SARA score, excluding Patient 5 ([3]; Week 52, SD=3.2): −0.9
- Change in Correlation Coefficient (connectivity default mode network - executive function network) [4]: +0.20 (3×) and −0.13 and +0.70
- AUC(0-t) ([5]; 5 mg, healthy adults, 5 mg once daily, Day 1 (N = 9), read-out: AUC0-24, Geometric mean (CV)): 292 ng·h/mL
- AUC(0-t) ([5]; 5 mg, healthy adults, 5 mg once daily, Day 1 (N = 9), read-out: AUC0-24, Mean (SD)): 296 ng·h/mL
- Cmax ([5]; 5 mg, healthy adults, 5 mg once daily, Day 1 (N = 9), read-out: Cmax, Geometric mean (CV)): 18.2 ng/mL
- Cmax ([5]; 5 mg, healthy adults, 5 mg once daily, Day 1 (N = 9), read-out: Cmax, Mean (SD)): 18.5 ng/mL
- Tmax ([5]; 5 mg, healthy adults, 5 mg once daily, Day 1 (N = 9)): 5 h
- AUC(0-t) ([5]; 5 mg, healthy adults, 5 mg once daily, Day 14 (N = 9), read-out: AUC0-24, Geometric mean (CV)): 632 ng·h/mL
- AUC(0-t) ([5]; 5 mg, healthy adults, 5 mg once daily, Day 14 (N = 9), read-out: AUC0-24, Mean (SD)): 642 ng·h/mL
- Cmax ([5]; 5 mg, healthy adults, 5 mg once daily, Day 14 (N = 9), read-out: Cmax, Geometric mean (CV)): 36.5 ng/mL
- Cmax ([5]; 5 mg, healthy adults, 5 mg once daily, Day 14 (N = 9), read-out: Cmax, Mean (SD)): 37 ng/mL
- Tmax ([5]; 5 mg, healthy adults, 5 mg once daily, Day 14 (N = 9)): 3 h
- AUC(0-t) ([5]; 10 mg, healthy adults, 10 mg once daily, Day 1 (N = 9), read-out: AUC0-24, Geometric mean (CV)): 623 ng·h/mL
- AUC(0-t) ([5]; 10 mg, healthy adults, 10 mg once daily, Day 1 (N = 9), read-out: AUC0-24, Mean (SD)): 635 ng·h/mL
- Cmax ([5]; 10 mg, healthy adults, 10 mg once daily, Day 1 (N = 9), read-out: Cmax, Geometric mean (CV)): 37.8 ng/mL
- Cmax ([5]; 10 mg, healthy adults, 10 mg once daily, Day 1 (N = 9), read-out: Cmax, Mean (SD)): 38.5 ng/mL
- Tmax ([5]; 10 mg, healthy adults, 10 mg once daily, Day 1 (N = 9)): 3 h
- AUC(0-t) ([5]; 10 mg, healthy adults, 10 mg once daily, Day 14 (N = 9), read-out: AUC0-24, Geometric mean (CV)): 1490 ng·h/mL
- AUC(0-t) ([5]; 10 mg, healthy adults, 10 mg once daily, Day 14 (N = 9), read-out: AUC0-24, Mean (SD)): 1550 ng·h/mL
- Cmax ([5]; 10 mg, healthy adults, 10 mg once daily, Day 14 (N = 9), read-out: Cmax, Geometric mean (CV)): 86 ng/mL
- Cmax ([5]; 10 mg, healthy adults, 10 mg once daily, Day 14 (N = 9), read-out: Cmax, Mean (SD)): 89.7 ng/mL
- Tmax ([5]; 10 mg, healthy adults, 10 mg once daily, Day 14 (N = 9)): 2 h
- AUC(0-t) ([5]; 20 mg, healthy adults, 20 mg once daily, Day 1 (N = 9), read-out: AUC0-24, Geometric mean (CV)): 1080 ng·h/mL
- AUC(0-t) ([5]; 20 mg, healthy adults, 20 mg once daily, Day 1 (N = 9), read-out: AUC0-24, Mean (SD)): 1100 ng·h/mL
- Cmax ([5]; 20 mg, healthy adults, 20 mg once daily, Day 1 (N = 9), read-out: Cmax, Geometric mean (CV)): 66.5 ng/mL
- Cmax ([5]; 20 mg, healthy adults, 20 mg once daily, Day 1 (N = 9), read-out: Cmax, Mean (SD)): 68 ng/mL
- Tmax ([5]; 20 mg, healthy adults, 20 mg once daily, Day 1 (N = 9)): 3.07 h
- AUC(0-t) ([5]; 20 mg, healthy adults, 20 mg once daily, Day 14 (N = 9), read-out: AUC0-24, Geometric mean (CV)): 2340 ng·h/mL
- AUC(0-t) ([5]; 20 mg, healthy adults, 20 mg once daily, Day 14 (N = 9), read-out: AUC0-24, Mean (SD)): 2420 ng·h/mL
- Cmax ([5]; 20 mg, healthy adults, 20 mg once daily, Day 14 (N = 9), read-out: Cmax, Geometric mean (CV)): 137 ng/mL
- Cmax ([5]; 20 mg, healthy adults, 20 mg once daily, Day 14 (N = 9), read-out: Cmax, Mean (SD)): 142 ng/mL
- Tmax ([5]; 20 mg, healthy adults, 20 mg once daily, Day 14 (N = 9)): 3 h
- CL renal ([5]; 5 mg, healthy adults, 5 mg once daily, Day 14 (N = 9), read-out: CLR(0-24), Mean (SD) (converted)): 25.8 mL/min
- CL renal ([5]; 10 mg, healthy adults, 10 mg once daily, Day 14 (N = 9), read-out: CLR(0-24), Geometric mean (CV) (converted)): 23.3 mL/min
- CL renal ([5]; 10 mg, healthy adults, 10 mg once daily, Day 14 (N = 9), read-out: CLR(0-24), Mean (SD) (converted)): 24.8 mL/min
- CL renal ([5]; 20 mg, healthy adults, 20 mg once daily, Day 14 (N = 9), read-out: CLR(0-24), Geometric mean (CV) (converted)): 33.3 mL/min
- CL renal ([5]; 20 mg, healthy adults, 20 mg once daily, Day 14 (N = 9), read-out: CLR(0-24), Mean (SD) (converted)): 34.5 mL/min
- CLss/F, Geometric mean (CV) ([5]; healthy adults, 5 mg once daily, Day 14 (N = 9)): 5.9 (19.5) L/h
- CLss/F, Geometric mean (CV) ([5]; healthy adults, 10 mg once daily, Day 14 (N = 9)): 5.0 (24.4) L/h
- CLss/F, Geometric mean (CV) ([5]; healthy adults, 20 mg once daily, Day 14 (N = 9)): 6.4 (25.8) L/h
- Ctrough values over time ([5]; healthy adults, 5, 10, or 20 mg once daily for 14 days): reached a plateau after Day 5
- Time to steady state ([5]; healthy adults, repeated once-daily doses from 5-20 mg): ≤ 5 days
- Plasma GL-3 over time [6]: decreased with time
- Hematologic or biochemical abnormalities ([7]; all Phase 1 studies): No clinically relevant hematologic or biochemical abnormalities
- Vital signs ([7]; all Phase 1 studies): no relevant changes from baseline
- Deaths, SAEs, severe TEAEs, discontinuations ([7]; all Phase 1 studies (single 2-150 mg; 5-20 mg daily for 14 days)): no deaths, SAEs, severe TEAEs, or TEAEs leading to study discontinuation
- ECG parameters ([7]; single ascending dose and food effect studies): no relevant changes
